According to patent US11236106B2, “Cycloalkane-1,3-diamine derivative” (Daiichi Sankyo Company, Limited, priority 2018, dated 2022):
Structures can show the parent of a compound that is named as a salt. Where two headings read alike, the source gives them in different places.

Columns and labels:
[1] = tested on: MV-4-11 cells; details: Exp. Ex. 3-3, oral, 31 days after transplantation
Procedure: MV-4-11 cells were purchased from ATCC. The female FOX CHASE SCID C.B.17/Icr-scid/scidJcl mice were purchased from Claire Japan. […] The compound was administered as a suspension in 0.5% MC. For the compound-free group, 0.5% MC was administered as a solvent. The estimated individual tumor volume was measured from the day of the grouping to 31 days after the transplantation (test end date).
Tumor growth inhibitory rate %=(1−TVCt/TVCc)×100 TVC=(Individual tumor volume on the test end date)−(Individual tumor volume on the grouping date) TVCt: TVC mean value of the compound administration group TVCc: TVC mean value of the compound-free group

[2] = molecular target: T1, menin and MLL (menin, Flag tagged; biotinylated MLL1 peptide 1-46aa) (Homo sapiens, UniProt O00255); assay: biochemical; details: AlphaLISA, 1 nM menin, 10 nM biotinylated MLL1 peptide
T1 sequence (O00255 1-610): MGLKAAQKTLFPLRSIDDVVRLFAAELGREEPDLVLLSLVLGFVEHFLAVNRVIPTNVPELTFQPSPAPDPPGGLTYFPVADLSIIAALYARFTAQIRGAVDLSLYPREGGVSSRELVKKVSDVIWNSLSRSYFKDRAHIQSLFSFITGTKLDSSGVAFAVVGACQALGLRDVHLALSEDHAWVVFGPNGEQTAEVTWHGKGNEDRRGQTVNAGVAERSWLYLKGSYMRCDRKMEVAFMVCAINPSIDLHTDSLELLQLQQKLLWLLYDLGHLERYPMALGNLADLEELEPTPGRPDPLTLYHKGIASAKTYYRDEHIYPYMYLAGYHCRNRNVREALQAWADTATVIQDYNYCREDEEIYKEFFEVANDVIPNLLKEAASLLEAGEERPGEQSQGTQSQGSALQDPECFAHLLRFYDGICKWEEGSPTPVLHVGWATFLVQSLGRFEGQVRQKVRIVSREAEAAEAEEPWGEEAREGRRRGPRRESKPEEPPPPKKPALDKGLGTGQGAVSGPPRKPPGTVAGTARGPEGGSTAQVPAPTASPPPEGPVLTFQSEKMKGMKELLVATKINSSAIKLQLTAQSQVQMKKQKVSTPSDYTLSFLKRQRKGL
Procedure: Then, the fluorescence signal by AlphaLISA (registered trademark, PerkinElmer Co., Ltd.) was measured using a plate reader (PerkinElmer Co., Ltd., EnVisionXcite).

[3] = tested on: MLL-AF9-overexpressing AML-like cells (MA9 cells); assay: Differentiation-inducing activity in MLL-AF9-overexpressing AML-like cells (flow cytometry of Gr-1 and cKit); format: cell-based, mouse; details: 7 days, 5 or 20 nM (Ex. 25, 27), 150 or 300 nM (Ex. 26), 50 or 100 nM (Ex. 22); for rate of the myeloid cell differentiation antigen Gr-1-expressing cells in living cells: versus control group (FIG. 10); for rate of the cKit-expressing cells in living cells: versus control group (FIG. 11)
Procedure: The human MLL-AF9 fusion gene was introduced into cKit-positive mononuclear cells isolated from the myeloid of C57BL6 mouse, by retrovirus infection. MLL-AF9-overexpressing AML-like cells (MA9 cells) that acquired abnormal growth ability were established by liquid-culturing the cells after virus infection for a long period of time. Serum-free medium (GlutaMax, P/S, Stem Pro-34 medium containing 10 ng/ml mIL-3, ng/mL mSCF and 10 ng/mL human Oncostatin M) was used as a culture medium.
For the control group, DMSO was added thereto at a final concentration of 0.1% (2 μL/well) (day 0). After culturing for 7 days (day 7), the cells were collected, and blocked with 5% FBS/PBS containing 10% Mouse BD Fc Block (BD) for 10 minutes at room temperature, and then any of various antibodies (Gr-1-FITC or CD117 (cKit)-APC: Biolegend) was added thereto at a final concentration of 0.4 μg/sample, and the mixture was reacted on ice for 30 minutes. Then, dead cell staining dye DAPI (0.2 mg/mL) was added thereto at so as to be […], and the reaction was carried out on ice for additional 2 minutes under shading. Then, the expression level of each surface antigen of the cells was measured by NovoCyte flow cytometer (LMS). The obtained data were analyzed by FlowJo software (Becton Dickinson), and the rate of each surface antigen-expressing cells in the living cells excluding dead cells was graphed.

[4] = tested on: MV-4-11 cells; assay: cells; details: Homo sapiens
Procedure: (§1) RPMI1640 medium supplemented with 10% FBS was used as a culture medium for each cells (MV-4-11, MOLM-13 cells, human AML cells, K562 cells, human CML cells). […] The prepared drug-containing plate was stored at −30° C. until use, and thawed before use.
(§2) The suspension of each cells was prepared with 10% FBS RPMI1640 culture medium so as to be 1000 cells/mL (K562) or 10000 cells/mL (MV-4-11, MOLM-13), and seeded on the drug-containing plate (40 μL/well) (day 0). The cells were cultured for additional 3 or 7 days. ATP measurement reagent (CellTiter-Glo (registered trademark, Promega Corporation) 2.0 Assay, model number G9242, Promega Corporation) was added to each well at 10 μL/well, on the day of the drug addition (day 0) and 3 days (day 3) or 7 days (day 7) after the drug addition. After affixing a black sticker on the bottom surface, the mixture was stirred using a microplate mixing deaeration machine (model name, Weltornado FK-62, Sakaki Dengyo Co., Ltd.) (stirring conditions, revolution 9, rotation 7, time 12).
(§3) The cell growth of the drug-added group from day 0 to day 3 or day 7 was calculated as T/C %, when the cell growth of the drug-free group was considered as 100%.

[5] = tested on: K562 cells; assay: cells; details: Homo sapiens
Procedure: as §1, §2, §3

[6] = tested on: MOLM-13 cells; assay: cells; details: Homo sapiens
Procedure: as §1, §2, §3

[7] = IC50, binding inhibitory activity between menin and MLL
[8] = MV4-11, 72 h, read-out: GI50 (μM) Day3 MV4;11
[9] = MV4-11, 168 h, read-out: GI50 (μM) Day7 MV4;11
[10] = K562, 72 h, read-out: GI50 (μM) Day3 K562
[11] = K562, 168 h, read-out: GI50 (μM) Day7 K562
[12] = MOLM-13, 72 h, read-out: GI50 (μM) Day3 MOLM-13
[13] = MOLM-13, 168 h, read-out: GI50 (μM) Day7 MOLM-13

COc1cc(-c2ccc(CN[C@H]3C[C@@H](O)[C@@H](N(C)c4ncnc5sc(CC(F)(F)F)cc45)C3)cc2)cnc1F.Cl [Example 68, (1R,2S,4R)-4-({[4-(6-fluoro-5-methoxypyridin-3-yl)phenyl]methyl}amino)-2-{methyl[6-(2,2,2-trifluoroethyl)thieno[2,3-d]pyrimidin-4-yl]amino}cyclopentan-1-ol hydrochloride]
Estimated tumor volume (test end date) Mean ± S.E. ([1]; qdx17, 25 mg/kg/day): 1151 ± 142 | Estimated tumor volume (test end date) Mean ± S.E. ([1]; qdx17, 50 mg/kg/day): 559 ± 104 | Estimated tumor volume (test end date) Mean ± S.E. ([1]; qdx17, 100 mg/kg/day): 31 ± 23 | IC50 [2, 7]: 1.7 nM

COc1nc(N(C)[C@H]2C[C@@H](NCc3ccc(-c4cc(OC)c(OC)nn4)cc3)C[C@H]2O)c2cc(CC(F)(F)F)sc2n1 [Example 27, (1R,2S,4R)-4-({[4-(5,6-dimethoxypyridazin-3-yl)phenyl]methyl}amino)-2-{[2-methoxy-6-(2,2,2-trifluoroethyl)thieno[2,3-d]pyrimidin-4-yl](methyl)amino}cyclopentan-1-ol Hydrochloride]
IC50 ([2]; cell free IC50 (nM)): 1.3 nM | rate of the myeloid cell differentiation antigen Gr-1-expressing cells in living cells [3]: increased the rate of Gr-1-positive cells | rate of the cKit-expressing cells in living cells [3]: reduced the rate of cKit-positive cells

COc1cc(-c2ccc(CN[C@H]3C[C@@H](O)[C@@H](N(C)c4ncnc5sc(CC(F)(F)F)cc45)C3)cc2)cnc1C#N [Example 22, 5-[4-({[(1R,3R,4S)-3-hydroxy-4-{methyl[6-(2,2,2-trifluoroethyl)thieno[2,3-d]pyrimidin-4-yl]amino}cyclopentyl]amino}methyl)phenyl]-3-methoxypyridine-2-carbonitrile Hydrochloride]
IC50 ([2]; cell free IC50 (nM)): 3.8 nM | rate of the myeloid cell differentiation antigen Gr-1-expressing cells in living cells [3]: increased the rate of Gr-1-positive cells | rate of the cKit-expressing cells in living cells [3]: reduced the rate of cKit-positive cells

COc1cncc(-c2ccc(CN[C@H]3C[C@@H](Nc4ncnc5sc(CC(F)(F)F)cc45)C[C@@H](OC)C3)cc2)c1 (single isomer, unassigned) [Example 18B, Hydrochloride]
GI50 [4, 8]: 2.16 µM | GI50 [4, 9]: 1.47 µM | IC50 ([2]; cell free IC50 (nM)): 182 nM | GI50 [5, 10]: 5.18 µM | GI50 [5, 11]: 4.71 µM | GI50 [6, 12]: 3.08 µM | GI50 [6, 13]: 3.97 µM

COc1cncc(-c2ccc(CN[C@@H]3C[C@H](Nc4ncnc5sc(CC(F)(F)F)cc45)C[C@H](c4ncco4)C3)cc2)c1 (single isomer, unassigned) [Example 19A, Hydrochloride]
GI50 [4, 8]: 0.489 µM | GI50 [4, 9]: 0.295 µM | IC50 ([2]; cell free IC50 (nM)): 33.5 nM | GI50 [5, 10]: 5.51 µM | GI50 [5, 11]: 5.39 µM | GI50 [6, 12]: 3.2 µM | GI50 [6, 13]: 0.906 µM

COc1cc(-c2ccc(CN[C@H]3C[C@@H](O)[C@@H](N(C)c4ncncc4Oc4ccc(F)c(F)c4C(=O)N(C(C)C)C(C)C)C3)cc2)nnc1OC [Example 104, 6-[(4-{[(1S,2R,4R)-4-({[4-(5,6-dimethoxypyridazin-3-yl)phenyl]methyl}amino)-2-hydroxycyclopentyl](methyl)amino}pyrimidin-5-yl)oxy]-2,3-difluoro-N,N-di(propan-2-yl)benzamide hydrochloride]
GI50 ([4]; MV4-11, 72 h, read-out: GI50, cell growth inhibitory activity, MV-4-11, day 3): 0.097 µM | GI50 ([4]; MV4-11, 168 h, read-out: GI50, cell growth inhibitory activity, MV-4-11, day 7): 0.066 µM | IC50 [2, 7]: 6.3 nM | GI50 ([5]; K562, 72 h, read-out: GI50, cell growth inhibitory activity, K562, day 3): > 5 µM | GI50 ([5]; K562, 168 h, read-out: GI50, cell growth inhibitory activity, K562, day 7): > 5 µM | GI50 ([6]; MOLM-13, 72 h, read-out: GI50, cell growth inhibitory activity, MOLM-13, day 3): 0.7 µM | GI50 ([6]; MOLM-13, 168 h, read-out: GI50, cell growth inhibitory activity, MOLM-13, day 7): 0.187 µM

COc1cncc(-c2ccc(CN[C@H]3C[C@@H](Nc4ncnc5sc(CC(F)(F)F)cc45)C[C@@H](c4ncco4)C3)cc2)c1 (single isomer, unassigned) [Example 19B, Hydrochloride]
GI50 [4, 8]: 3.18 µM | GI50 [4, 9]: 2.6 µM | IC50 ([2]; cell free IC50 (nM)): 1810 nM | GI50 [5, 10]: 5.45 µM | GI50 [5, 11]: 5.41 µM | GI50 [6, 12]: 4.03 µM | GI50 [6, 13]: 5.75 µM

CC(N[C@H]1CC[C@@H](N(C)c2ncnc3sc(CC(F)(F)F)cc23)C1)c1ccccc1 (mixture of isomers) [Example 33, (1R,3S)-N^1-methyl-N^3-(1-phenylethyl)-N^1-[6-(2,2,2-trifluoroethyl)thieno[2,3-d]pyrimidin-4-yl]cyclopentane-1,3-diamine (diastereomer mixture)]
GI50 [4, 8]: 5.22 µM | IC50 ([2]; cell free IC50 (nM)): 2420 nM | GI50 [5, 10]: 6.44 µM | GI50 [6, 12]: 4.82 µM

CNc1nc(N(C)[C@H]2C[C@@H](NCc3ccc(-c4cnc(OC)c(OC)c4)cc3)C[C@@H]2OC)c2cc(CC(F)(F)F)sc2n1 [Example 24, N^4-[(1S,2S,4R)-4-({[4-(5,6-dimethoxypyridin-3-yl)phenyl]methyl}amino)-2-methoxycyclopentyl]-N^2,N^4-dimethyl-6-(2,2,2-trifluoroethyl)thieno[2,3-d]pyrimidine-2,4-diamine Hydrochloride]
IC50 ([2]; cell free IC50 (nM)): 4.1 nM

COc1cc(-c2ccc(CN[C@H]3C[C@@H](O)[C@@H](N(C)c4ncnc5sc(CC(F)(F)F)cc45)C3)cc2)cnc1Cl [Example 65, (1R,2S,4R)-4({[4-(6-chloro-5-methoxypyridin-3-yl)phenyl]methyl}amino)-2{methyl[6-(2,2,2-trifluoroethyl)thieno[2,3-d]pyrimidin-4-yl]amino}cyclopentan-1-ol hydrochloride]
IC50 [2, 7]: 2.5 nM

COc1nc(N(C)[C@H]2C[C@@H](NCc3ccc(-c4nn(C(F)F)c(=O)cc4OC)cc3)C[C@H]2O)c2cc(CC(F)(F)F)sc2n1 [Example 111, 2-(difluoromethyl)-6-[4-({[(1R,3R,4S)-3-hydroxy-4-{[2-methoxy-6-(2,2,2-trifluoroethyl)thieno[2,3-d]pyrimidin-4-yl](methyl)amino}cyclopentyl]amino}methyl)phenyl]-5-methoxypyridazin-3(2H)-one hydrochloride]
IC50 [2, 7]: 42.3 nM

COc1cncc(-c2ccc(CN[C@@H]3C[C@H](Nc4ncnc5sc(CC(F)(F)F)cc45)C[C@H](OC)C3)cc2)c1 (single isomer, unassigned) [Example 18A, Hydrochloride]
GI50 [4, 8]: 0.26 µM | GI50 [4, 9]: 0.131 µM | IC50 ([2]; cell free IC50 (nM)): 10.3 nM | GI50 [5, 10]: 5.7 µM | GI50 [5, 11]: 5.01 µM | GI50 [6, 12]: 2.83 µM | GI50 [6, 13]: 0.448 µM

COc1cc(-c2ccc(CN[C@H]3C[C@@H](OC)[C@@H](N(C)c4ncnc5sc(CC(F)(F)F)cc45)C3)cc2)nnc1OC [Example 127, (1R,3S,4R)—N^1-{[4-(5,6-dimethoxypyridazin-3-yl)phenyl]methyl}-4-methoxy-N^3-methyl-N^3-[6-(2,2,2-trifluoroethyl)thieno[2,3-d]pyrimidin-4-yl]cyclopentane-1,3-diamine Hydrochloride]
IC50 [2, 7]: 1.6 nM

CNc1nc(N(C)[C@H]2C[C@@H](NCc3ccc(Nc4cccnc4)cc3)C[C@@H]2O)c2cc(CC(F)(F)F)sc2n1 [Example 54, (1S,2S,4R)-2-{methyl[2-(methylamino)-6-(2,2,2-trifluoroethyl)thieno[2,3-d]pyrimidin-4-yl]amino}-4-[({4-[(pyridin-3-yl)amino]phenyl}methyl)amino]cyclopentan-1-ol hydrochloride]
IC50 ([2]; cell free IC50 (nM)): 1 nM
